The text below walks through data of the supplement of paper PMC10307832.

Holding throughout (test): relative viability (nuclei count vs DMSO), 5 days (fraction); higher = more cells survive
Compound in test [1]: CCOc1cc2ncc(C#N)c(Nc3ccc(OCc4ccccn4)c(Cl)c3)c2cc1NC(=O)/C=C/CN(C)C [Neratinib] + CC(=O)c1c(C)c2cnc(Nc3ccc(N4CCNCC4)cn3)nc2n(C2CCCC2)c1=O [Palbociclib] (partner 0.5 µM)
A digest of the protocol:
(§1)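 Lung cancer cell lines in 1536-well plates were dosed by pin tool the day after seeding, either with one drug alone or with a fixed anchor-drug dose plus five library-drug doses (not always all listed) in √10 steps. After 5 days, cells were fixed and their nuclei stained in one step (final 0.05% Triton X-100, 1% formaldehyde, 1 ug/ml Hoechst), then counted on 4× images. Relative viability is the nuclei count in treated wells divided by that in vehicle wells. Values are medians of duplicate plates.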

Compound in test [2]: CCOc1cc2ncc(C#N)c(Nc3ccc(OCc4ccccn4)c(Cl)c3)c2cc1NC(=O)/C=C/CN(C)C [Neratinib] + CS(=O)(=O)N1CCN(Cc2cc3nc(-c4cccc5[nH]ncc45)nc(N4CCOCC4)c3s2)CC1 [Pictilisib] (partner 1 µM)
Summed up:
as §1

Compound in test [3]: CCOc1cc2ncc(C#N)c(Nc3ccc(OCc4ccccn4)c(Cl)c3)c2cc1NC(=O)/C=C/CN(C)C [Neratinib] + N=C(N)NC(=N)NCCc1ccccc1 [Phenformin] (partner 250 µM)
A digest of the protocol: as §1

Compound in test [4]: CCOc1cc2ncc(C#N)c(Nc3ccc(OCc4ccccn4)c(Cl)c3)c2cc1NC(=O)/C=C/CN(C)C [Neratinib] + Nc1ncn([C@H]2C[C@H](O)[C@@H](CO)O2)c(=O)n1 [Decitabine] (partner 2 µM)
A digest of the protocol: as §1

NCI-H1666: the relative viability in test [1] (first compound 0.01 µM) is 0.597; in test [1] (first compound 0.03162 µM), 0.711; in test [1] (first compound 0.1 µM) it was 0.579; in test [1] (first compound 0.3162 µM) it was 0.625; in test [1] (first compound 1 µM), 0.774; in test [2] (first compound 0.01 µM) it was 0.549. Moreover, the relative viability is 0.327 in test [2] (first compound 0.1 µM); 0.218 in test [2] (first compound 0.3162 µM); 0.271 in test [2] (first compound 1 µM); 0.616 in test [3] (first compound 0.01 µM); 0.573 in test [3] (first compound 0.03162 µM); 0.519 in test [3] (first compound 0.1 µM). In addition, the relative viability in test [3] (first compound 0.3162 µM) is 0.54; in test [3] (first compound 1 µM), 0.593; in test [4] (first compound 0.1 µM), 0.747; in test [4] (first compound 0.3162 µM) it was 0.612; in test [4] (first compound 1 µM), 0.604.
As for NCI-H1355, the relative viability in test [1] (first compound 0.01 µM) is 0.38; in test [1] (first compound 0.03162 µM) it was 0.41; in test [1] (first compound 0.1 µM) it was 0.348; in test [1] (first compound 0.3162 µM), 0.302; in test [1] (first compound 1 µM), 0.274; in test [2] (first compound 0.01 µM), 0.485. Also, the relative viability in test [2] (first compound 0.03162 µM) was 0.482; in test [2] (first compound 0.1 µM), 0.395; in test [2] (first compound 0.3162 µM), 0.365; in test [2] (first compound 1 µM) it was 0.232; in test [3] (first compound 0.01 µM) it was 0.485; in test [3] (first compound 0.03162 µM), 0.433. For the same cell line, the relative viability in test [3] (first compound 0.1 µM) came to 0.408; in test [3] (first compound 0.3162 µM), 0.417; in test [3] (first compound 1 µM), 0.427; in test [4] (first compound 0.01 µM), 0.343; in test [4] (first compound 0.03162 µM), 0.326; in test [4] (first compound 0.1 µM), 0.337. Further, the values for the relative viability in test [4] (first compound 0.3162 µM) and in test [4] (first compound 1 µM) were 0.372 and 0.341, respectively.
For the cell line HCC-827, the relative viability in test [1] (first compound 0.01 µM) is 0.503; in test [1] (first compound 0.03162 µM), 0.509; in test [1] (first compound 0.1 µM), 0.513; in test [1] (first compound 0.3162 µM) it was 0.194; in test [1] (first compound 1 µM), 0.15; in test [2] (first compound 0.01 µM), 0.872. In addition, the relative viability in test [2] (first compound 0.03162 µM) was found to be 0.88; in test [2] (first compound 0.1 µM) it was 0.73; in test [2] (first compound 0.3162 µM), 0.623; in test [2] (first compound 1 µM), 0.219; in test [3] (first compound 0.01 µM) it was 0.42; in test [3] (first compound 0.03162 µM), 0.411. The relative viability was found to be 0.403 in test [3] (first compound 0.1 µM); 0.23 in test [3] (first compound 0.3162 µM); 0.151 in test [3] (first compound 1 µM); 0.375 in test [4] (first compound 0.01 µM); 0.354 in test [4] (first compound 0.03162 µM); 0.271 in test [4] (first compound 0.1 µM). Moreover, the relative viability in test [4] (first compound 0.3162 µM) came out at 0.243; in test [4] (first compound 1 µM), 0.217.
Turning to HARA, the relative viability was determined as 0.24 in test [1] (first compound 0.01 µM); 0.275 in test [1] (first compound 0.03162 µM); 0.237 in test [1] (first compound 0.1 µM); 0.195 in test [1] (first compound 0.3162 µM); 0.227 in test [1] (first compound 1 µM); 0.494 in test [2] (first compound 0.01 µM). Also, the relative viability is 0.294 in test [2] (first compound 0.03162 µM); 0.362 in test [2] (first compound 0.1 µM); 0.262 in test [2] (first compound 0.3162 µM); 0.336 in test [2] (first compound 1 µM); 0.387 in test [3] (first compound 0.01 µM); 0.578 in test [3] (first compound 0.03162 µM). Besides, the relative viability was 0.385 in test [3] (first compound 0.1 µM); 0.318 in test [3] (first compound 0.3162 µM); 0.215 in test [3] (first compound 1 µM); 0.573 in test [4] (first compound 0.01 µM); 0.493 in test [4] (first compound 0.03162 µM); 0.414 in test [4] (first compound 0.1 µM). In addition, the relative viability in test [4] (first compound 1 µM) was 0.476.
